How the values were obtained:
[1] = test system: IgG designated catalytic antibody 48G7, monoclonal antibody elicited to the tetrahedral nitrophenyl phosphonate transition-state analogue (2); experiment: Antibody-catalysed hydrolysis of carbonate (1), followed by the increase in absorbance at 400 nm (nitrophenolate ion release), Michaelis-Menten kinetics; assay type: biochemical, BALB/C mice
Procedure: BALB/C mice were immunized with the BSA-phosphonate conjugate emulsified in complete Freund's adjuvant. A fusion was carried out by standard methods using SP2/0 myeloma as the fusion partner. IgG was purified from ascites fluid by affinity chromatography on protein A coupled Sepharose 4B and dialyzed exhaustively against reaction buffer.
The rates of hydrolysis of carbonate I (1) in the presence (kobsd) and the absence (kun) of 4.4 µM antibody were determined as a function of substrate concentration. Carbonate hydrolysis was followed in 10 mM Tris-HCl, pH 8.5 at 30°C, by following the increase in absorbance at 400 nm due to nitrophenolate ion release.

catalytic antibody 48G7 = experiment: pH-based catalytic antibody biosensor: differential electrode response to MpNPC after incubation in transition state analog; assay type: biochemical, BALB/C mice; conditions: electrodes incubated in 50 µM TSA; pH 8.5 buffer (0.14 M KCl, 0.01 M Tris, 0.02% sodium azide); substrate MpNPC
Description: A pH-based catalytic antibody biosensor incorporating catalytic antibodies as enzyme mimics in a configuration similar to that of enzyme electrodes was used to measure the pH change resulting from the catalyzed hydrolysis of methyl p-nitrophenylcarbonate (MpNPC). […] The catalytic antibody 48G7 is synthesized and its catalytic activity identified in accordance with the methodology described in Example 1.
The catalytic antibody 48G7 produces a relatively small rate of acceleration as compared to natural enzymes. Consequently, the observed pH difference is small but is easily measurable in a reproducible manner. […] Two miniature pH electrodes 152 and 154 were employed and the difference between the two was monitored. […]
The electrical potential of the two miniature pH electrodes 152 and 154 (Microelectrodes Inc., model MI-404) was monitored relative to a single Ag/AgCl reference electrode 156 in an nonthermostated vessel 158 as shown in Fig. 13 using two Keithley 617 electrometers 160. […]
The reference electrode 156 and the two pH electrodes 152 and 154 were placed in 2.5 ml of a pH 8.5 buffer (0.14 M KCl, 0.01 M Tris, 0.02% sodium azide) and allowed to stabilize for […]. […] The response to MpNPC was measured after approximately 12 hours in solution (not shown) but the remainder of the measurements were performed after approximately 36 hours in solution. […]

[2] = 4.4 µM antibody, 10 mM Tris-HCl, pH 8.5 at 30°C, first pair of values printed
[3] = second pair of values printed ("This IgG", designated 48G7)

| Km [1, 2] [µM] | Km [1, 3] [µM] | Compound | kcat [1, 2] [s⁻¹] | rate acceleration above background ([1]; antibody-catalysed versus background rate) | kcat [1, 3] [s⁻¹] | inhibition of catalysis (MpNPC hydrolysis) (catalytic antibody 48G7) |
| --- | --- | --- | --- | --- | --- | --- |
| 660 | 350 | COC(=O)Oc1ccc([N+](=O)[O-])cc1 [carbonate (1), methyl p-nitrophenylcarbonate] | 0.0233 ± 0.00333 | 16,000 | 0.483 | – |
| – | – | COP(=O)(O)Oc1ccc([N+](=O)[O-])cc1 [transition state analog (TSA), methyl p-nitrophenylphosphate] | – | – | – | effectively inhibits the catalysis |
